Read-outs that look alike come from different tables or passages of the source.
Test system: C57BL/6N mice
Conditions: TPHP-H group, liver
[1] = adduct [M+Na]+, first of two TG 52:3 lines
[2] = adduct [M+Na]+, second of two TG 52:3 lines

O=P(Oc1ccccc1)(Oc1ccccc1)Oc1ccccc1 [TPHP, triphenyl phosphate]
Z-score of CAR 6:0 (adduct [M+H]+): 0.97
Z-score of CAR 10:0 (adduct [M+H]+): 0.72
Z-score of CAR 12:0 (adduct [M+H]+): 0.32
Z-score of CAR 16:2 (adduct [M+H]+): 1.03
Z-score of CAR 18:2 (adduct [M+H]+): 1.01
Z-score of CAR 18:4 (adduct [M+H]+): 0.35
Z-score of CAR 20:4 (adduct [M+H]+): 0.29
Z-score of NAE 14:0 (adduct [M+H]+): -0.67
Z-score of NAE 20:5 (adduct [M+H]+): -0.01
Z-score of PC 40:6 (adduct [M+H]+): -0.91
Z-score of PS 36:4 (adduct [M+H]+): 0.46
Z-score of SM 27:5;O2 (adduct [M+H]+): 0.61
Z-score of SM 28:3;O3 (adduct [M+H]+): 0.70
Z-score of SM 31:3;O3 (adduct [M+H]+): -0.94
Z-score of SM 41:2;O2 (adduct [M+H]+): 0.44
average intensity of CAR 6:0 (adduct [M+H]+): 3598107
average intensity of CAR 10:0 (adduct [M+H]+): 1728654
average intensity of CAR 12:0 (adduct [M+H]+): 2142093
average intensity of CAR 16:2 (adduct [M+H]+): 3030917
average intensity of CAR 18:2 (adduct [M+H]+): 20111001
average intensity of CAR 18:4 (adduct [M+H]+): 9217007
average intensity of CAR 20:4 (adduct [M+H]+): 30801597
average intensity of NAE 14:0 (adduct [M+H]+): 23845
average intensity of NAE 20:5 (adduct [M+H]+): 31668356
average intensity of PC 40:6 (adduct [M+H]+): 6977163
average intensity of PS 36:4 (adduct [M+H]+): 1402007
average intensity of SM 27:5;O2 (adduct [M+H]+): 18765822
average intensity of SM 28:3;O3 (adduct [M+H]+): 1926974
average intensity of SM 31:3;O3 (adduct [M+H]+): 284040
average intensity of SM 41:2;O2 (adduct [M+H]+): 8959905
Z-score of BMP 25:4 (adduct [M+NH4]+): -0.92
Z-score of BMP 30:5 (adduct [M+NH4]+): -0.72
Z-score of BMP 38:4 (adduct [M+NH4]+): -0.80
Z-score of PG 21:2 (adduct [M+NH4]+): -0.95
Z-score of PI 39:10 (adduct [M+NH4]+): -0.92
Z-score of TG 48:11 (adduct [M+NH4]+): -0.82
Z-score of TG 55:4 (adduct [M+NH4]+): 1.02
average intensity of BMP 25:4 (adduct [M+NH4]+): 4738753
average intensity of BMP 30:5 (adduct [M+NH4]+): 17597
average intensity of BMP 38:4 (adduct [M+NH4]+): 940807
average intensity of PG 21:2 (adduct [M+NH4]+): 816725
average intensity of PI 39:10 (adduct [M+NH4]+): 61034
average intensity of TG 48:11 (adduct [M+NH4]+): 5429634
average intensity of TG 55:4 (adduct [M+NH4]+): 11320635
Z-score of Cer 42:1;O2 (adduct [M+Na]+): -0.92
Z-score of Cer 64:6;O2 (adduct [M+Na]+): 0.66
Z-score of DG 19:1 (adduct [M+Na]+): -0.58
Z-score of DG 26:5 (adduct [M+Na]+): -0.58
Z-score of DG 26:6 (adduct [M+Na]+): -0.75
Z-score of PC 29:5 (adduct [M+Na]+): -0.84
Z-score of PC 38:6 (adduct [M+Na]+): -0.76
Z-score of PC 42:9 (adduct [M+Na]+): -0.79
Z-score of PS 40:7 (adduct [M+Na]+): 0.85
Z-score of TG 52:2 (adduct [M+Na]+): 0.76
Z-score of TG 52:4 (adduct [M+Na]+): 0.88
average intensity of Cer 42:1;O2 (adduct [M+Na]+): 679331
average intensity of Cer 64:6;O2 (adduct [M+Na]+): 17434974
average intensity of DG 19:1 (adduct [M+Na]+): 4218
average intensity of DG 26:5 (adduct [M+Na]+): 1190306
average intensity of DG 26:6 (adduct [M+Na]+): 269918
average intensity of PC 29:5 (adduct [M+Na]+): 1903378
average intensity of PC 38:6 (adduct [M+Na]+): 3451074
average intensity of PC 42:9 (adduct [M+Na]+): 130359
average intensity of PS 40:7 (adduct [M+Na]+): 5213900
average intensity of TG 52:2 (adduct [M+Na]+): 10933392
average intensity of TG 52:4 (adduct [M+Na]+): 3390540
Z-score of TG 52:3 [1]: 0.89
average intensity of TG 52:3 [1]: 1451015
Z-score of TG 52:3 [2]: 0.90
average intensity of TG 52:3 [2]: 11832628
Z-score of Cer 40:1;O2 (adduct [M-H]-): -0.86
Z-score of Cer 41:1;3O(2OH) (adduct [M-H]-): -0.76
Z-score of Cer 42:1;3O(2OH) (adduct [M-H]-): -0.75
Z-score of Cer 43:1;3O(2OH) (adduct [M-H]-): -0.75
Z-score of FA 10:1 (adduct [M-H]-): -0.63
Z-score of FA 14:2 (adduct [M-H]-): 0.87
Z-score of FA 16:2;O (adduct [M-H]-): 0.12
Z-score of FA 19:2;O2 (adduct [M-H]-): 0.47
Z-score of PG 34:2 (adduct [M-H]-): -0.59
Z-score of PG 44:12 (adduct [M-H]-): -0.58
Z-score of PI 36:3 (adduct [M-H]-): -0.62
Z-score of PI 38:4 (adduct [M-H]-): 0.28
average intensity of Cer 40:1;O2 (adduct [M-H]-): 112540
average intensity of Cer 41:1;3O(2OH) (adduct [M-H]-): 650455
average intensity of Cer 42:1;3O(2OH) (adduct [M-H]-): 109690
average intensity of Cer 43:1;3O(2OH) (adduct [M-H]-): 95819
average intensity of FA 10:1 (adduct [M-H]-): 124984
average intensity of FA 14:2 (adduct [M-H]-): 2337946
average intensity of FA 16:2;O (adduct [M-H]-): 718403
average intensity of FA 19:2;O2 (adduct [M-H]-): 6586718
average intensity of PG 34:2 (adduct [M-H]-): 89164
average intensity of PG 44:12 (adduct [M-H]-): 16526
average intensity of PI 36:3 (adduct [M-H]-): 224637
average intensity of PI 38:4 (adduct [M-H]-): 36494581
